Test results reported in ChEMBL document CHEMBL1765007, “Synthesis and biological evaluation of new 2-alkylaminoethyl-1,1-bisphosphonic acids against Trypanosoma cruzi and Toxoplasma gondii targeting farnesyl diphosphate synthase” (Bioorg Med Chem, 2011).

Experiments:
[1] = molecular target: T1, Farnesyl diphosphate synthase (Trypanosoma cruzi, UniProt Q8WS26); experiment: Inhibition of Trypanosoma cruzi FPPS after 30 mins using [14C]IPP by scintillation counting
T1 sequence (Q8WS26 whole entry): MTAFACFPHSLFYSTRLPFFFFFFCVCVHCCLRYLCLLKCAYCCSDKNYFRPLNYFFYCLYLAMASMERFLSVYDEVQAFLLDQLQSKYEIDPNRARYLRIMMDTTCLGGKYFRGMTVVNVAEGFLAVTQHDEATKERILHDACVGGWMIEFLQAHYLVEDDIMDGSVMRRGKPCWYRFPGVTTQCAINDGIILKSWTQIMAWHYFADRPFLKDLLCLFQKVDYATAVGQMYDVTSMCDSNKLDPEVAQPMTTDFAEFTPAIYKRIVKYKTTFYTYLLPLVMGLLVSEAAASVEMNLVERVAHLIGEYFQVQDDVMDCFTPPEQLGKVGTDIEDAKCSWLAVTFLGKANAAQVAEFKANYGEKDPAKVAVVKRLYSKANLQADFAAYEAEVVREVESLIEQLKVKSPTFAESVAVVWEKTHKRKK

[2] = system: Trypanosoma cruzi; experiment: Antiparasitic activity against Trypanosoma cruzi amastigotes infected in gamma-irradiated vero cells assessed as growth inhibition by fluorescence assay; assay type: functional, organism-based; conditions: light or radiation study
[3] = system: Toxoplasma gondii; experiment: Antiparasitic activity against Toxoplasma gondii tachyzoite expressing red fluorescence protein assessed as growth inhibition by fluorescence plate reader; assay type: functional, organism-based
[4] = molecular target: T2, Farnesyl diphosphate synthase (Toxoplasma gondii, UniProt Q197X6); experiment: Inhibition of Toxoplasma gondii FPPS after 30 mins using [14C]IPP by scintillation counting
T2 sequence (Q197X6 whole entry): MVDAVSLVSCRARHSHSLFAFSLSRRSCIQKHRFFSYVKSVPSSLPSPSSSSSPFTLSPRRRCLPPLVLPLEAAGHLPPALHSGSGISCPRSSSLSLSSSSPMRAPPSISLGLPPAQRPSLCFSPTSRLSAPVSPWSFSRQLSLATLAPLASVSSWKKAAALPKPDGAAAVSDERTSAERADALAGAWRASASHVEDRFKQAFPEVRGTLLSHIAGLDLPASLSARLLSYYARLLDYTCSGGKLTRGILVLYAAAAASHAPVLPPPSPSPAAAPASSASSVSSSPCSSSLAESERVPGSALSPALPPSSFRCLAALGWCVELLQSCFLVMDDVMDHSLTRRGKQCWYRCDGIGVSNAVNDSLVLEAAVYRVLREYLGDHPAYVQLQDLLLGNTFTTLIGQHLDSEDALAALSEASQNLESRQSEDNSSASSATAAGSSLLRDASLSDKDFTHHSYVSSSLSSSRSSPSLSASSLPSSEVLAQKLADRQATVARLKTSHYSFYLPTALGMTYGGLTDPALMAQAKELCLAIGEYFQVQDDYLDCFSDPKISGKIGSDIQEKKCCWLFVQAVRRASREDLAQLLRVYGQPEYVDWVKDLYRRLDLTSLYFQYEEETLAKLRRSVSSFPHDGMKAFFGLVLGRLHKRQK

[5] = system: Toxoplasma gondii; experiment: Antiparasitic activity against Toxoplasma gondii assessed as growth inhibition; assay type: functional, organism-based

Compound | IC50 [1] | IC50 [2] | IC50 [3] | IC50 [4] | IC50 [5]
O=P(O)(O)C(CNCc1ccccc1)P(=O)(O)O | > 1000 nM | > 10000 nM | > 10000 nM | – | –
CCCCCCCCCNCC(P(=O)(O)O)P(=O)(O)O | 430 nM | > 10000 nM | > 10000 nM | 440 nM | –
CCCCCCCCCCNCC(P(=O)(O)O)P(=O)(O)O | > 1000 nM | > 10000 nM | > 10000 nM | 68 nM | –
CCCCCCCCCCCNCC(P(=O)(O)O)P(=O)(O)O | 856 nM | 5130 nM | > 10000 nM | 868 nM | –
CCCCCCCCCCCCNCC(P(=O)(O)O)P(=O)(O)O | 811 nM | 670 nM | 6230 nM | 93 nM | –
CCCCCCCCCCCCCCNCC(P(=O)(O)O)P(=O)(O)O | > 1000 nM | > 10000 nM | 11300 nM | 292 nM | –
CCCCCCCCCCCCCCCCNCC(P(=O)(O)O)P(=O)(O)O | – | 2190 nM | 4130 nM | – | –
CCCCCCCCCCCCCCCCCCNCC(P(=O)(O)O)P(=O)(O)O | – | > 10000 nM | 5290 nM | – | –
CCCCCCNCC(P(=O)(O)O)P(=O)(O)O | – | 840 nM | – | – | 9370 nM
O=C(Cn1ccnc1[N+](=O)[O-])NCc1ccccc1 [BENZNIDAZOLE] | – | 2770 nM | – | – | –
